≈ marks a conversion by molar mass, not a printed value.

In assay [1] the test system is MDA435 (human breast adenocarcinoma). Kind of assay: Cell proliferation (MTS) assay, MDA435. As to conditions: Homo sapiens, MDA435, 72 h, three days treatment. Format: cell-based. An outline of the steps: (§1)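 Cells plated at about 3000 per well in RPMI-1640/10% FBS were dosed with compound one day later. Viability was read by MTS conversion (absorbance 490 nm, 1–2 h) three days after treatment began. Effect is expressed as percent of vehicle-treated growth on the same plate.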

Assay [2] has as its system MDA468 (human breast cancer cell). Kind of assay: Cell proliferation (MTS) assay, MDA468. The settings on record: Homo sapiens, 72 h, three days treatment. Format: cell-based. The procedure, abridged:
as §1

A further assay deals with T1, Human TOR (Homo sapiens, UniProt P42345).
T1 construct: FLAG
Kind of assay: Human TOR (mTOR) kinase assay, DELFIA format. Format: biochemical. The procedure, abridged:
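Purified FLAG-TOR (800 ng/mL) phosphorylates His6-S6K ([…]) with […] ATP in Hepes pH 7.4 buffer containing MnCl2, 2 h at room temperature. Phospho-Thr389 S6K detected by DELFIA using Europium-labelled anti-P(T389)-p70S6K antibody; enzyme inhibition calculated from signal.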

For assay [3], the system named is LNCaP (human prostate carcinoma). Kind of assay: Cell proliferation (MTS) assay, LNCaP. Format: cell-based. As to conditions: Homo sapiens, LNCaP, 72 h, three days treatment. The procedure, abridged: as §1
Assay [4] deals with phosphor-AKT (S473) in Rat1 cells. Kind of assay: Rat1-IGF1 assay (IGF-1 induced phospho-AKT immunoblot). The format is cell-based, rat. As to conditions: Rattus norvegicus. The procedure, abridged: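 After 24 h serum starvation, Rat1 cells got vehicle or varying 17-HWT concentrations for 2 hours, then IGF-1 (100 ng/mL) for 30 minutes. Lysates immunoblotted for phospho-AKT (S473) and total AKT.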

In another assay the test system is T2, PI3K.
T2 construct: PI3K FP IC50
Put plainly: Fluorescence polarization assay for PI3K. The format is biochemical. As to conditions: for IC50: Table 2. The procedure, abridged:
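PI3K was preincubated with compound at 1% DMSO final, then reacted with PIP2/ATP substrate for 30-60 min. The reaction was stopped with a detector mix giving 10 nM red probe and 70 nM GST-GRP. Fluorescence polarization (mP, Tamra filters) was read 30-90 min later and IC50 determined.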

In assay [5] the test system is DU145 (human prostate carcinoma/lymphocytic leukemia). Put plainly: Cell proliferation (MTS) assay, DU145. Format: cell-based. The settings on record: Homo sapiens, DU-145, 72 h, three days treatment. The procedure, abridged: as §1

Take `COCC1OC(=O)C(=CN(C)CCCN2CCN(C)CC2)C2=C(O)C(=O)C3=C(C(OC(C)=O)CC4(C)C(O)CCC34)C21C` (centres unmarked) [Compound 26, Acetic acid 6,17-dihydroxy-1-methoxymethyl-10,13-dimethyl-4-({methyl-[3-(4-methyl-piperazin-1-yl)-propyl]-amino}-methylene)-3,7-dioxo-1,3,4,7,10,11,12,13,14,15,16,17-dodecahydro-2-oxa-cyclopenta[a]phenanthren-11-yl ester]: the IC50 in assay [1] (Table 2) is 21 µg/mL (≈ 34.9 µM); in assay [2] (Table 2), 3.9 µg/mL (≈ 6.48 µM); at Human TOR (Table 2), 2330 nM; in assay [3] (Table 2), 0.28 µg/mL (≈ 0.465 µM); in assay [4] (Table 2) it was 0.02 µg/mL (≈ 0.0332 µM); in the assay with PI3K it was 19 nM. Also, the IC50 in assay [5] (Table 2) was 17 µg/mL (≈ 28.3 µM).
Turning to `COCC1OC(=O)C(=CN(C)C(C=C(C)C(=O)OC)C(C)C)C2=C(O)C(=O)C3=C(C(OC(C)=O)CC4(C)C(O)CCC34)C21C` (centres unmarked) [Compound 24, 4-[(11-Acetoxy-6,17-dihydroxy-1-methoxymethyl-10,13-dimethyl-3,7-dioxo-1,7,10,11,12,13,14,15,16,17-decahydro-2-oxa-cyclopenta[a]phenanthren-4-ylidenemethyl)-methyl-amino]-2,5-dimethyl-hex-2-enoic acid methyl ester], the IC50 in assay [1] (Table 2) was 10.1 µg/mL (≈ 16.3 µM); in assay [2] (Table 2), 1.05 µg/mL (≈ 1.71 µM); on Human TOR (Table 2) it was more than 16200 nM; in assay [3] (Table 2) it was 0.13 µg/mL (≈ 0.211 µM); in assay [4] (Table 2), more than 0.1 µg/mL; in the assay with PI3K, 5400 nM. This compound also returned an IC50 in assay [5] (Table 2) of 4 µg/mL (≈ 6.5 µM).
Consider `COCC1OC(=O)C(=CN2CCN(C3CCN(C)CC3)CC2)C2=C(O)C(=O)C3=C(C(OC(C)=O)CC4(C)C(O)CCC34)C21C` (centres unmarked) [Compound 34, Acetic acid 6,17-dihydroxy-1-methoxymethyl-10,13-dimethyl-4-[4-(1-methyl-piperidin-4-yl)-piperazin-1-ylmethylene]-3,7-dioxo-1,3,4,7,10,11,12,13,14,15,16,17-dodecahydro-2-oxa-cyclopenta[a]phenanthren-11-yl ester], for which the IC50 in assay [1] (Table 2) is 22 µg/mL (≈ 35.8 µM); in assay [2] (Table 2), 6 µg/mL (≈ 9.78 µM); at Human TOR (Table 2), 961 nM; in assay [3] (Table 2), 0.48 µg/mL (≈ 0.782 µM); in assay [4] (Table 2) it was 0.1 µg/mL (≈ 0.163 µM); in the assay on PI3K it was 91 nM. Also, in assay [5] (Table 2), the IC50 was 25 µg/mL (≈ 40.7 µM).
For `CCN(CC)CCCN(C=C1C(=O)OC(COC)C2(C)C1=C(O)C(=O)C1=C2C(OC(C)=O)CC2(C)C(O)CCC12)CCS(=O)(=O)c1ccccc1` (centres unmarked) [Compound 28, Acetic acid 4-{[(2-benzenesulfonyl-ethyl)-(3-diethylamino-propyl)-amino]-methylene}-6,17-dihydroxy-1-methoxymethyl-10,13-dimethyl-3,7-dioxo-1,3,4,7,10,11,12,13,14,15,16,17-dodecahydro-2-oxa-cyclopenta[a]phenanthren-11-yl ester], the IC50 in assay [1] (Table 2) was 11 µg/mL (≈ 15.1 µM); in assay [2] (Table 2), 3 µg/mL (≈ 4.12 µM); against Human TOR (Table 2) it was more than 13700 nM; in assay [3] (Table 2) it was 0.12 µg/mL (≈ 0.165 µM); in assay [4] (Table 2), more than 0.1 µg/mL; with PI3K, 131 nM. For the same compound, the IC50 in assay [5] (Table 2) amounted to 8.5 µg/mL (≈ 11.7 µM).
Turning to `COCC1OC(=O)C(=CN(C)CCCN2CCOCC2)C2=C(O)C(=O)C3=C(C(OC(C)=O)CC4(C)C(O)CCC34)C21C` (centres unmarked) [Compound 27, Acetic acid 6,17-dihydroxy-1-methoxymethyl-10,13-dimethyl-4-{[methyl-(3-morpholin-4-yl-propyl)-amino]-methylene}-3,7-dioxo-1,3,4,7,10,11,12,13,14,15,16,17-dodecahydro-2-oxa-cyclopenta[a]phenanthren-11-yl ester], the IC50 in assay [1] (Table 2) was 30 µg/mL (≈ 51 µM); in assay [2] (Table 2), 5 µg/mL (≈ 8.49 µM); at Human TOR (Table 2), 2290 nM; in assay [3] (Table 2), 0.35 µg/mL (≈ 0.595 µM); in assay [4] (Table 2), 0.1 µg/mL (≈ 0.17 µM); in the assay on PI3K, 24 nM. Further, the midpoint of inhibition in assay [5] (Table 2), the IC50, lay at 23 µg/mL (≈ 39.1 µM).
On to `COCC1OC(=O)C(=CN(C)CC(=O)OC(C)(C)C)C2=C(O)C(=O)C3=C(C(OC(C)=O)CC4(C)C(O)CCC34)C21C` (centres unmarked) [Compound 35, [(11-Acetoxy-6,17-dihydroxy-1-methoxymethyl-10,13-dimethyl-3,7-dioxo-1,7,10,11,12,13,14,15,16,17-decahydro-2-oxa-cyclopenta[a]phenanthren-4-ylidenemethyl)-methyl-amino]-acetic acid tert-butyl ester], for which the IC50 in assay [1] (Table 2) is 5.5 µg/mL (≈ 9.55 µM); in assay [2] (Table 2) it was 1.4 µg/mL (≈ 2.43 µM); against Human TOR (Table 2), 13900 nM; in assay [3] (Table 2), 0.1 µg/mL (≈ 0.174 µM); in assay [4] (Table 2), 0.1 µg/mL (≈ 0.174 µM); in the assay with PI3K, 1580 nM. The IC50 in assay [5] (Table 2) amounted to 3 µg/mL (≈ 5.21 µM).
`COCC1OC(=O)C(=CN2CCC(C(=O)OC)CC2)C2=C(O)C(=O)C3=C(C(OC(C)=O)CC4(C)C(O)CCC34)C21C` (centres unmarked) [Compound 22, 1-(11-Acetoxy-6,17-dihydroxy-1-methoxymethyl-10,13-dimethyl-3,7-dioxo-1,7,10,11,12,13,14,15,16,17-decahydro-2-oxa-cyclopenta[a]phenanthren-4-ylidenemethyl)-piperidine-4-carboxylic acid methyl ester]: the IC50 was 18 µg/mL (≈ 31.4 µM) in assay [1] (Table 2); 3.5 µg/mL (≈ 6.1 µM) in assay [2] (Table 2); 1690 nM on Human TOR (Table 2); 0.29 µg/mL (≈ 0.506 µM) in assay [3] (Table 2); 0.1 µg/mL (≈ 0.174 µM) in assay [4] (Table 2); 52 nM with PI3K. The same compound had an IC50 in assay [5] (Table 2) of 17 µg/mL (≈ 29.6 µM).
Take `COCC1OC(=O)C(=CN(CCCN(C)C)CCCN(C)C)C2=C(O)C(=O)C3=C(C(OC(C)=O)CC4(C)C(O)CCC34)C21C` (centres unmarked) [Compound 21, Acetic acid 4-{[bis-(3-dimethylamino-propyl)-amino]-methylene}-6,17-dihydroxy-1-methoxymethyl-10,13-dimethyl-3,7-dioxo-1,3,4,7,10,11,12,13,14,15,16,17-dodecahydro-2-oxa-cyclopenta[a]phenanthren-11-yl ester]: the IC50 in assay [1] (Table 2) is 11 µg/mL (≈ 17.8 µM); in assay [2] (Table 2) it was 3.9 µg/mL (≈ 6.31 µM); against Human TOR (Table 2), 3560 nM; in assay [3] (Table 2) it was 0.16 µg/mL (≈ 0.259 µM); in assay [4] (Table 2) it was 0.1 µg/mL (≈ 0.162 µM); in the assay with PI3K it was 22 nM. This compound returned an IC50 in assay [5] (Table 2) of 12 µg/mL (≈ 19.4 µM).
Regarding `COCC1OC(=O)C(=CN(C)CCN(C)C)C2=C(O)C(=O)C3=C(C(OC(C)=O)CC4(C)C(O)CCC34)C21C` (centres unmarked) [Compound 31, Acetic acid 4-{[(2-dimethylamino-ethyl)-methyl-amino]-methylene}-6,17-dihydroxy-1-methoxymethyl-10,13-dimethyl-3,7-dioxo-1,3,4,7,10,11,12,13,14,15,16,17-dodecahydro-2-oxa-cyclopenta[a]phenanthren-11-yl ester], the IC50 in assay [1] (Table 2) is 23 µg/mL (≈ 43.2 µM); in assay [2] (Table 2) it was 4 µg/mL (≈ 7.51 µM); at Human TOR (Table 2) it was 1280 nM; in assay [3] (Table 2) it was 0.4 µg/mL (≈ 0.751 µM); in assay [4] (Table 2) it was 0.1 µg/mL (≈ 0.188 µM); in the assay on PI3K it was 9 nM. In assay [5] (Table 2), this compound returned an IC50 of 21 µg/mL (≈ 39.4 µM).
Consider `COCC1OC(=O)C(=CN2CCN(CCN3CCOCC3)CC2)C2=C(O)C(=O)C3=C(C(OC(C)=O)CC4(C)C(O)CCC34)C21C` (centres unmarked) [Compound 33, Acetic acid 6,17-dihydroxy-1-methoxymethyl-10,13-dimethyl-4-[4-(2-morpholin-4-yl-ethyl)-piperazin-1-ylmethylene]-3,7-dioxo-1,3,4,7,10,11,12,13,14,15,16,17-dodecahydro-2-oxa-cyclopenta[a]phenanthren-11-yl ester], for which the IC50 in assay [1] (Table 2) is 18 µg/mL (≈ 28.6 µM); in assay [2] (Table 2), 4.3 µg/mL (≈ 6.83 µM); against Human TOR (Table 2) it was 619 nM; in assay [3] (Table 2), 0.5 µg/mL (≈ 0.794 µM); in assay [4] (Table 2) it was 0.1 µg/mL (≈ 0.159 µM); in the assay with PI3K, 78 nM. The concentration for half-maximal inhibition (IC50) in assay [5] (Table 2) stood at 20 µg/mL (≈ 31.8 µM).
Consider `COC[C@H]1OC(=O)/C(=C/Nc2ccccc2)C2=C(O)C(=O)C3=C([C@H](OC(C)=O)C[C@]4(C)[C@@H](O)CC[C@@H]34)[C@]21C` [Compound 3, (1E,4S,4aR,5R,6aS,7S,9aR)-1-(anilinomethylene)-7,11-dihydroxy-4-(methoxymethyl)-4a,6a-dimethyl-2,10-dioxo-1,2,4,4a,5,6,6a,7,8,9,9a,10-dodecahydroindeno[4,5-h]isochromen-5-yl acetate], for which the IC50 in assay [1] (Table 1) was 15 µg/mL; in assay [2] (Table 1), 5 µg/mL; against Human TOR (Table 1) it was 9170 nM; in assay [3] (Table 1) it was 3.5 µg/mL; in assay [4] (Table 1), more than 0.1 µg/mL; in assay [5] (Table 1) it was 12 µg/mL. In addition, the “PI3K FP IC50” value with PI3K (Table 1) worked out at 0.228 µg/mL.

These data come from US7666901B2, “Analogs of 17-hydroxywortmannin as PI3K inhibitors” (Wyeth, priority 2004, dated 2010).
